The subject of one assay is BMDMs. Kind of assay: JE on TNF-α and IL-6 secretion by BMDMs upon LPS and TLR agonists. It counts as cell-based, mouse. The protocol: FIG. 16. The Effect of JE on TNF-α Secretion by BMDMs in Response to Stimulation by Different Concentrations of LPS. BMDMs were isolated and cultured, as mentioned before. Macrophages were incubated overnight with JE at a concentration of 50 μM at 37° C., 5% CO2. The next day, they were stimulated with two-fold dilutions of LPS at a starting concentration of 5 ng/ml for 3 hours. Supernatants were collected, and TNF-α was measured using ELISA. Data are presented as mean±SEM (n=6). *p<0.05; **p<0.01; ***p<0.001. One of two experiments is shown.
FIG. 17. The Effect of JE on IL-6 Secretion by BMDMs in Response to Stimulation by Different Concentrations of LPS. BMDMs were isolated and cultured as described above. Macrophages were incubated overnight with JE at a concentration of 50 μM at 37° C., 5% CO2. The next day, they were stimulated with two-fold dilutions of LPS at a starting concentration of 5 ng/ml for 3 hours. Supernatants were collected, and IL-6 was measured using ELISA. Data are presented as mean±SEM (n=6). *p<0.05; **p<0.01; ***p<0.001. One of two experiments is shown.
FIG. 18. The Effect of JE on TNF-α Secretion by BMDMs in Response to Stimulation by TLR Agonists. BMDMs were isolated and cultured as described above. Macrophages were incubated overnight with JE at a concentration of 50 μM at 37° C., 5% CO2. The following day, they were stimulated with 1 μg/ml of FLG-ST, […] of ODN, 50 μg/ml of Poly: IC, 3 μg/ml of Imiquimod, 3 μg/ml and 1.5 μg/ml of PAM-3SCk, 1 μg/ml of FSL-1 for 3 hours. Supernatants were collected, and TNF-α was measured using ELISA. Data are presented as mean±SEM (n=6). *p<0.05; **p<0.01; ***p<0.001. One of three experiments is shown.
Murine macrophages, both RAW 264.7 macrophages and bone marrow-derived macrophages (BMDMs), were seeded and then pretreated overnight with the metabolite JE. The following day, the macrophages were stimulated with one of TLR agonists, including LPS, FLA-ST, ODN, Pam3SCK4, Poly: IC LMW, FSL, and Imiquimod for 3 hours, then the production of TNF-α, and IL-6 in the culture supernatants was measured by ELISA.
Therefore, I stimulated them with two-fold dilution of the concentration I used to stimulate RAW 264.7. […] On the other hand, JE could reduce IL-6 secretion by BMDMs at 5 ng/ml of LPS as depicted in FIG. 17.
Similar to treatment of RAW 264.7 macrophages with TLR agonists, I pretreated BMDMs with JE then stimulated them with FLG, ODN, PIC, Imiquimod, PAM-3SCK, and FSL-1. […] After 3 hours, Supernatants were collected, TNF-α and IL-6 were quantified by ELISA.

The subject of the next assay is NLRP3 inflammasome. Kind of assay: JE on IL-1β production by THP-1 macrophages upon NLRP3 activation. The class given is cell-based, human. How it is done:
FIG. 22. The Effect of JE on IL-1β Production by THP-1 Macrophages. THP-1 macrophages were pretreated with JE overnight at 37° C., 5% CO2. The next day, they were primed with LPS at 500 ng/ml for 4 hours then activated with 6.5 μM of nigericin for 30 minutes at 37 C, 5% CO2. Supernatants were collected and IL-1β production with ELISA. Data are presented as mean±SEM (n=6). *p<0.05. One of two experiments is shown.
FIG. 23. The Effect of JE on IL-1β Production by THP-1 Macrophages: JE was used as a pretreatment when THP-1 macrophages were pretreated with JE overnight at 37° C., 5% CO2. The next day, they were primed with LPS at 500 ng/ml for 4 hours, then activated with 5 mM of ATP for 30 minutes at 37° C., 5% CO2. In the case when JE was used as a treatment, cells were primed with 10 ng/ml of LPS for 4 hours, then JE was added overnight at 37° C., 5% CO2. The following day, macrophages were activated with 5 mM of ATP for an hour. Supernatants were collected and IL-1β production with ELISA. Data are presented as mean±SEM (n=6). **p<0.01. One of two experiments is shown.
We similarly tested THP-1 cells as described above. […] I collected the supernatant and measured IL-1β by ELISA. […]

The values below come from patent publication US20250000874A1, “BACTERIAL METABOLITES AND THEIR USE IN REDUCING INFLAMMATION” (LOYOLA UNIVERSITY OF CHICAGO, priority 2023, published 2025).

On to `CC(=O)O[C@@H]1CC[C@H]2[C@H]3CC[C@H]4CC(F)(F)CC[C@]4(C)[C@H]3CC[C@]12C` [JE, 3,3-Difluoro-5-alpha-androstan-17-beta-yl acetate], for which the TNF-α secretion result in the assay on BMDMs (JE 50 μM overnight, LPS 0.6 ng/ml 3 hours) is “Significant inhibition”; in the assay with BMDMs (JE 50 μM overnight, LPS 1.25 ng/ml 3 hours), “Significant inhibition”. For the same compound, in the assay on BMDMs (JE 50 μM overnight, LPS 5 ng/ml 3 hours), the IL-6 secretion result is reported as “could reduce”. The “TNF-α secretion upon stimulation with TLR agonists” value in the assay on BMDMs (JE 50 μM overnight, FLG, ODN, PIC, Imiquimod, PAM-3SCK, FSL-1, 3 hours) is listed as “decreased”. The “IL-6 secretion upon stimulation with TLR agonists” value in the assay on BMDMs (JE 50 μM overnight, TLR agonists 3 hours) is “decreased”. Moreover, the IL-6 production entry with BMDMs (JE, LPS 10 ng/ml) is listed as “failed to decrease”. Further, the TNF-α production result is “failed to decrease” with BMDMs (JE, LPS 10 ng/ml); “did not significantly reduce” in the assay on BMDMs (ODN and PAM-3SCK, previous experiment before two-fold dilutions). Also, the “IL-1β production upon NLRP3 activation” value in the assay with NLRP3 inflammasome (JE added before priming with LPS (pretreatment overnight)) is “could decrease”; in the assay on NLRP3 inflammasome (JE after priming with LPS and before adding ATP) it was “still detected robust production”.
